Like-named read-outs stand apart in the source and are kept apart here.
Columns and labels:
[1] = tested on: CHO cells; assay: Protein translation assay (puromycin incorporation in CHO cells, unstressed or Tg-stressed); assay type: cell-based, Chinese hamster; details: Cricetulus griseus, media alone 100%; for activity at 0.1 µM: read-out: % Recovery of protein expression (100 nM test compound)
Method in brief: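 CHO cells pretreated 2 h with 1 μM compound (unstressed), or 1 h with 100 nM or 1 μM then co-treated with 300 nM Tg. Pulse-labelled with 10 μg/ml puromycin for 30 min, then anti-puromycin western blot with densitometry. Unstressed values normalized to media alone (100%); stressed recovery scaled between media alone (100%) and Tg alone (0%).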

[2] = tested on: fasted Balb/c mice; assay: Fasting-induced muscle atrophy; assay type: in vivo, mouse
Description: Wild type eight-weeks-old male Balb/c mice obtained from the vivarium Fundacion Ciencia & Vida Chile (Santiago, Chile) were used. Mice were housed in independent plastic cages in a room maintained at 25° C. with a 12-h:12-h light:dark cycle.
Twenty-four hours before and during the 2 days of fasted procedures, animals received oral administration via feeding tubes (15 gauge) of vehicle (50% Polyethylene glycol 400 (Sigma-Aldrich P3265) in distilled water or 10 mg/kg of compound 3 formulated in vehicle solution.
After 2 days of fasting the animals were sacrificed and muscles were removed from both hindlimbs. Mice with feed and water ad libitum were used as control.
For in vivo measurements of protein synthesis, puromycin (Sigma-Aldrich, P8833) was prepared at 0.04 μmol/g body weight in a volume of 200 μL of PBS, and subsequently administered into the animals via IP injection, 30 min prior to muscle collection.
Upon collection, muscles were immediately frozen in liquid nitrogen and then stored at −80° C. […] Protein concentration in supernatants was determined using BCA Protein Assay Kit (Pierce). […]
Puromycin (12D10) (Merck Millipore) and β-actin (Sigma-Aldrich) antibodies were used as primary antibodies. […] Quantification of protein bands was done by densitometry using ImageJ software. […]

[3] = tested on: ATF4; assay: ATF4 expression inhibition assay (thapsigargin-stressed HEK293T cells, western blot); assay type: cell-based; details: Homo sapiens, HEK-293T; for IC50: 3 h with 100 nM Tg, test compound 1 nM to 1 μM; for inhibition at 0.1 µM: 3 h with 100 nM thapsigargin (Tg) and 100 nM test compound; for inhibition at 0.1 µM / inhibition at 1 µM: Tg alone 0%, untreated 100%; for inhibition at 1 µM: 3 h with 100 nM thapsigargin (Tg) and 1 μM test compound
Method in brief: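 HEK293T cells treated with thapsigargin (Tg) plus test compound (100 nM or 1 μM) for 3 hours, then lysed; ATF4 measured by western blot with ECL and densitometry. % inhibition normalized to Tg alone (0%) and untreated cells (100%); IC50 also calculated.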

[4] = tested on: hippocampal slices from transgenic APP/PS1 mice; assay: Electrophysiology and long-term potentiation in hippocampal slices; details: slices from APP/PS1 mouse, 5 μM, 60 min after theta burst stimulation
Description: Hippocampal slices were prepared as described in Ardiles et al., Pannexin 1 regulates bidirectional hippocampal synaptic plasticity in adult mice. Front Cell Neurosci, vol. 8, art. 326 (2014). Six to eleven-month-old WT C57BL/6 or transgenic APP/PS1 mice (Jackson Lab 34829-JAX) were deeply anesthetized with isoflurane and their brains were quickly removed. 5-10 slices (350 μm) from each animal were dissected in ice-cold dissection buffer using a vibratome (Leica VT1200S, Leica Microsystems, Nussloch, Germany). Slices were incubated with 5 μM ISRIB, 5 μM compound 3, 1 μM compound 152, or a vehicle (complete medium containing 0.1% DMSO) 20 min before conditioning stimulation. Synaptic responses were evoked by stimulating the Schaffer collaterals with 0.2 ms pulses delivered through concentric bipolar stimulating electrodes, and recorded extracellularly in the stratum radiatum of the CA1 subfield. Long-term potentiation (LTP) was induced by four-theta burst stimulation (TBS) (10 trains of four pulses at 100 Hz; 5 Hz inter-burst interval) delivered at 0.1 Hz. LTP magnitude based on field excitatory postsynaptic potential (fEPSP) was calculated as the average (normalized to baseline) of the responses recorded 60 min after conditioning stimulation. Similar experiments can be performed using a different test compound in place of ISRIB, compound 3, or compound 152.

[5] = CHO cells stressed with 300 nM Tg, Tg alone 0%
[6] = CHO cells stressed with 300 nM Tg, Tg alone 0%, read-out: % Recovery of protein expression (1 μM test compound)
[7] = unstressed CHO cells, 2 h, read-out: % Protein expression relative to untreated (1 μM test compound)

IC50 [3] [nM]	SMILES	activity at 0.1 µM [1, 5] [%]	activity at 1 µM [1, 6] [%]	activity at 1 µM [1, 7] [%]	ATF4 staining in muscle fiber CSA [2]	inhibition at 0.1 µM [3] [%]	inhibition at 1 µM [3] [%]	long-term potentiation (LTP), fEPSP [4]
49	O=C(NC1CCN(C[C@H](O)COc2ccc(Cl)c(F)c2)CC1)c1ccc2cc(Cl)ccc2n1 (single isomer, unassigned) [Compound 152, (+)-6-chloro-N-(1-(3-(4-chloro-3-fluorophenoxy)-2-hydroxypropyl)piperidin-4-yl)quinoline-2-carboxamide]	99.1	280	239	No staining was detected	86	91	
16	O=C(COc1ccc(Cl)cc1)N[C@H]1CC[C@H](NC(=O)C2CNc3cc(Cl)ccc3O2)CC1 (stereo partly drawn) [Compound 156, trans-6-chloro-N-(4-(2-(4-chlorophenoxy)acetamido)cyclohexyl)-3,4-dihydro-2H-benzo[b][1,4]oxazine-2-carboxamide]	25.1	200	197		94	97	
< 100	O=C(COc1ccc(Cl)cc1)N[C@H]1CC[C@H](N2CC(COc3ccc(Cl)cc3)OC2=O)CC1 (stereo partly drawn) [Compound 159, trans-2-(4-chlorophenoxy)-N-(4-(5-((4-chlorophenoxy)methyl)-2-oxooxazolidin-3-yl)cyclohexyl)acetamide]	23.9	79.4			52	84	
	O=C(COc1ccc(Cl)cc1)NC1CCC(NC(=O)COc2ccc(Cl)cc2)CC1 (stereo not shown) [ISRIB]							partial LTP recovery

Source: US11230542B2, “Inhibitors of integrated stress response pathway” (Praxis Biotech LLC, priority 2017, dated 2022)
